Measured values published in ChEMBL document CHEMBL5291721, “A preclinical secondary pharmacology resource illuminates target-adverse drug reaction associations of marketed drugs” (Nat Commun, 2023).

Experiments:
Adenosine receptor A3 = molecular target: T1, Adenosine receptor A3 (Homo sapiens, UniProt P0DMS8)
T1 sequence (P0DMS8 whole entry): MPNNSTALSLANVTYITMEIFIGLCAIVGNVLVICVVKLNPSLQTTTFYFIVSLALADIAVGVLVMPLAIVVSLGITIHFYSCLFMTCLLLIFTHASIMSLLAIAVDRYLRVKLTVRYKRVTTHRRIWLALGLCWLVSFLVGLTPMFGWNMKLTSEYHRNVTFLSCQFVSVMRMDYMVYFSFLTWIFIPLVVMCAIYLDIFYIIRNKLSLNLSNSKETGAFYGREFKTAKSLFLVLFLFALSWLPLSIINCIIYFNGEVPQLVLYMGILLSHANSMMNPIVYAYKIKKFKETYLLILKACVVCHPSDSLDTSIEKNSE

[1] = molecular target: T2, Alpha-1A adrenergic receptor (Homo sapiens, UniProt P35348); type: functional, cell-based
T2 sequence (P35348 whole entry): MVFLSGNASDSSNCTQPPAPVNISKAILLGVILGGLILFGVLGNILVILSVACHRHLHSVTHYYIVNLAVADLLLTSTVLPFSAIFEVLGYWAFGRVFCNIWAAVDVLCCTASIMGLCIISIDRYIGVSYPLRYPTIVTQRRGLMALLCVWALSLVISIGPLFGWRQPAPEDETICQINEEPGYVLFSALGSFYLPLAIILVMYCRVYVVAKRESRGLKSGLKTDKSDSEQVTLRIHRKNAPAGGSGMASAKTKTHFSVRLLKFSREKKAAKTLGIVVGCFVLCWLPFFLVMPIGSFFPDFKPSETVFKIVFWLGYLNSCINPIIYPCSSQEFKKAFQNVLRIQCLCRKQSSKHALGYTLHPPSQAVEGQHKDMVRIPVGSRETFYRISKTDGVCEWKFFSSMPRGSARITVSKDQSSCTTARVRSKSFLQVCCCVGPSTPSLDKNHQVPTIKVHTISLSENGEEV

[2] = molecular target: T3, Alpha-2A adrenergic receptor (Homo sapiens, UniProt P08913)
T3 sequence (P08913 whole entry): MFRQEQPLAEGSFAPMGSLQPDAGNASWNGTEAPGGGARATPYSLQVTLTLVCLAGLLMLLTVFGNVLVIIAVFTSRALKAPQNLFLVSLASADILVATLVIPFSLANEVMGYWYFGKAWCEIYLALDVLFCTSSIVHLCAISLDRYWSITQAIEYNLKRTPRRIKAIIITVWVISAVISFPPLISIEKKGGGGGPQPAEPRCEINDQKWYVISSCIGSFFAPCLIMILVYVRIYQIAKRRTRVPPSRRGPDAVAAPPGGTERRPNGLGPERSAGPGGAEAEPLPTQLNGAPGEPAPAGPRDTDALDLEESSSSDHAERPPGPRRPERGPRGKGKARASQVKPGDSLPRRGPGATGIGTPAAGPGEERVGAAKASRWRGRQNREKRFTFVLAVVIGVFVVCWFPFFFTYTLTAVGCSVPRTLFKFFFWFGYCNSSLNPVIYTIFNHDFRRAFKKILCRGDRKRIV

[3] = molecular target: T4, Muscarinic acetylcholine receptor M2 (Homo sapiens, UniProt P08172)
T4 sequence (P08172 whole entry): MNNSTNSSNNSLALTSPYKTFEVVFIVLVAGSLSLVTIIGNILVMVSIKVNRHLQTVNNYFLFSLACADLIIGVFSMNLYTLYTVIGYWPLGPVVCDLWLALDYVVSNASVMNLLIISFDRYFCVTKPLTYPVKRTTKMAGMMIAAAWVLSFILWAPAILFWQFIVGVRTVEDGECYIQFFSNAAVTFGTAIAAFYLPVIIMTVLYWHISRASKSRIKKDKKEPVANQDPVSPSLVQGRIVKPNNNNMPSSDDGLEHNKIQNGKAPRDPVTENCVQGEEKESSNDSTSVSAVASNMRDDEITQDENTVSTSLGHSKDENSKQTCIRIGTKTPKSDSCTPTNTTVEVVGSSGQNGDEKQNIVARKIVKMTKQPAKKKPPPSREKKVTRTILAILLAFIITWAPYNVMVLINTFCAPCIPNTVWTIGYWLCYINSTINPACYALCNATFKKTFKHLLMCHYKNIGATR

D(1A) dopamine receptor = D(1A) dopamine receptor (Homo sapiens, UniProt P21728)
D(3) dopamine receptor = D(3) dopamine receptor (Homo sapiens, UniProt P35462)
Prothrombin = Prothrombin (Homo sapiens, UniProt P00734); type: functional
Histamine H3 receptor = Histamine H3 receptor (Homo sapiens, UniProt Q9Y5N1)
[4] = molecular target: 5-hydroxytryptamine receptor 2B (Homo sapiens, UniProt P41595); type: functional, cell-based
[5] = molecular target: Voltage-gated inwardly rectifying potassium channel KCNH2 (Homo sapiens, UniProt Q12809); type: functional; conditions: read-out: AC50
Mu-type opioid receptor = Mu-type opioid receptor (Homo sapiens, UniProt P35372)
[6] = molecular target: T5, Prostaglandin G/H synthase 1 (Homo sapiens, UniProt P23219); type: functional
[7] = molecular target: T5, Prostaglandin G/H synthase 1; type: functional; remark: listed apart in the source
[8] = molecular target: Sodium-dependent serotonin transporter (Homo sapiens, UniProt P31645)
Thromboxane A2 receptor = molecular target: T6, Thromboxane A2 receptor (Homo sapiens, UniProt P21731); type: functional, cell-based
T6 sequence (P21731 whole entry): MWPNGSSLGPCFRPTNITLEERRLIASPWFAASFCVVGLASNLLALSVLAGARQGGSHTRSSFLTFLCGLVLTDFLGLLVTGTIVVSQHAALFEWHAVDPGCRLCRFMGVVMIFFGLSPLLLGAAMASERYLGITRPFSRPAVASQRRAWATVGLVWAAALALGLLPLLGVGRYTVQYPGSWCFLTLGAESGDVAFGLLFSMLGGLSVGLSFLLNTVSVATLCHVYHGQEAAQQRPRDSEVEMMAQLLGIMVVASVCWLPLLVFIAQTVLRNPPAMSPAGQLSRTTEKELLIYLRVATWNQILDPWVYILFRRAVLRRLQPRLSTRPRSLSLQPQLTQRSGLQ
Further: assay procedure not described here.

Chain of 5-hydroxytryptamine receptor 2B (P41595 whole entry): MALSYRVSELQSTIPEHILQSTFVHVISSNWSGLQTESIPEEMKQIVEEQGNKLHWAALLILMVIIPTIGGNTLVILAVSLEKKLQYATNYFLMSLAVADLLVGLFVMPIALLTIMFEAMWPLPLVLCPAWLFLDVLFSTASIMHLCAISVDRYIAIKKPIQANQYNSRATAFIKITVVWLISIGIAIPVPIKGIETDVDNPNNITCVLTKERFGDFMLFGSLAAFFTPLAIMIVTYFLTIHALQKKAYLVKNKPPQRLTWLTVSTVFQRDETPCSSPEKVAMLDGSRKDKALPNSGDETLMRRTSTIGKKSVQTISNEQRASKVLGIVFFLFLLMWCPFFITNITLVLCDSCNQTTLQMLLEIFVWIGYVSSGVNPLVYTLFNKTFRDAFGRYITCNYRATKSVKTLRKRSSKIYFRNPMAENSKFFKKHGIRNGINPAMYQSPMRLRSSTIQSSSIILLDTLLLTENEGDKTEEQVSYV
Chain of D(3) dopamine receptor (P35462 whole entry): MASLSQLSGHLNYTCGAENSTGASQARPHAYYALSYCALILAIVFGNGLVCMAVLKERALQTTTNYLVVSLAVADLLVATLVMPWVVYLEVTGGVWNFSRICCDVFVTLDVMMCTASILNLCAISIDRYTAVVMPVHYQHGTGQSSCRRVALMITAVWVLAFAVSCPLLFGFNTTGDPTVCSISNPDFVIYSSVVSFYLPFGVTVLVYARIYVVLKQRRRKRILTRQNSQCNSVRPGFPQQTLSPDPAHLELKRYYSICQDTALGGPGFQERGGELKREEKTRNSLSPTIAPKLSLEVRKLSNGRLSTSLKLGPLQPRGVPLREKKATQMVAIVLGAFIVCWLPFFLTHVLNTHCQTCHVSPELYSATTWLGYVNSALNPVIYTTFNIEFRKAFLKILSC
T5 sequence (P23219 whole entry): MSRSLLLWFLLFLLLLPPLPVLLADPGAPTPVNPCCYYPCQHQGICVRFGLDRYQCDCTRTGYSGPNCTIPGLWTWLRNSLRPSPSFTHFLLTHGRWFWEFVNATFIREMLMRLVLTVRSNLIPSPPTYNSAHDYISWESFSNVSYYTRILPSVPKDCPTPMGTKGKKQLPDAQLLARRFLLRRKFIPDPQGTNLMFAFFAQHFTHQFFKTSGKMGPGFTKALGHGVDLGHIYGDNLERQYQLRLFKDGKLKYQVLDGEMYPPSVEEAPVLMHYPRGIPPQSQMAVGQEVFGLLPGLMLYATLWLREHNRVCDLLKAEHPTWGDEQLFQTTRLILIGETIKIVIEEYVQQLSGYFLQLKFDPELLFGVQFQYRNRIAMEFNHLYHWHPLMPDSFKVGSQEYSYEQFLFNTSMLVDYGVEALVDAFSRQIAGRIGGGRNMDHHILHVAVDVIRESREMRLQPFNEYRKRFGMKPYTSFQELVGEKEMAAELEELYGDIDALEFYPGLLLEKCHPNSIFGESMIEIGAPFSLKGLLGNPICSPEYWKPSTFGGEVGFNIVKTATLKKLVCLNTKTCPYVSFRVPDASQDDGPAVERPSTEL
Chain of D(1A) dopamine receptor (P21728 whole entry): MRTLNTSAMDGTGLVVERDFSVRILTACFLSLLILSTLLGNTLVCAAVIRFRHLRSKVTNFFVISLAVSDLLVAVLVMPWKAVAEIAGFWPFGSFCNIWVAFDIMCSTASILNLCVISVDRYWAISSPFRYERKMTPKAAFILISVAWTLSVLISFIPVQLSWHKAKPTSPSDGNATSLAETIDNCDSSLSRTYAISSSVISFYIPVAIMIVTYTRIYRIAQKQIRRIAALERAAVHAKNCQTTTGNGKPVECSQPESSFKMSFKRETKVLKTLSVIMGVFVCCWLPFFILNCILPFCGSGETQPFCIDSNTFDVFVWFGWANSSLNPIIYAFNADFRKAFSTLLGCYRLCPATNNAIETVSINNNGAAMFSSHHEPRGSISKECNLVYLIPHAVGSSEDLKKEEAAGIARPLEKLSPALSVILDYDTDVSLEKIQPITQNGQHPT
Chain of Voltage-gated inwardly rectifying potassium channel KCNH2 (Q12809 whole entry): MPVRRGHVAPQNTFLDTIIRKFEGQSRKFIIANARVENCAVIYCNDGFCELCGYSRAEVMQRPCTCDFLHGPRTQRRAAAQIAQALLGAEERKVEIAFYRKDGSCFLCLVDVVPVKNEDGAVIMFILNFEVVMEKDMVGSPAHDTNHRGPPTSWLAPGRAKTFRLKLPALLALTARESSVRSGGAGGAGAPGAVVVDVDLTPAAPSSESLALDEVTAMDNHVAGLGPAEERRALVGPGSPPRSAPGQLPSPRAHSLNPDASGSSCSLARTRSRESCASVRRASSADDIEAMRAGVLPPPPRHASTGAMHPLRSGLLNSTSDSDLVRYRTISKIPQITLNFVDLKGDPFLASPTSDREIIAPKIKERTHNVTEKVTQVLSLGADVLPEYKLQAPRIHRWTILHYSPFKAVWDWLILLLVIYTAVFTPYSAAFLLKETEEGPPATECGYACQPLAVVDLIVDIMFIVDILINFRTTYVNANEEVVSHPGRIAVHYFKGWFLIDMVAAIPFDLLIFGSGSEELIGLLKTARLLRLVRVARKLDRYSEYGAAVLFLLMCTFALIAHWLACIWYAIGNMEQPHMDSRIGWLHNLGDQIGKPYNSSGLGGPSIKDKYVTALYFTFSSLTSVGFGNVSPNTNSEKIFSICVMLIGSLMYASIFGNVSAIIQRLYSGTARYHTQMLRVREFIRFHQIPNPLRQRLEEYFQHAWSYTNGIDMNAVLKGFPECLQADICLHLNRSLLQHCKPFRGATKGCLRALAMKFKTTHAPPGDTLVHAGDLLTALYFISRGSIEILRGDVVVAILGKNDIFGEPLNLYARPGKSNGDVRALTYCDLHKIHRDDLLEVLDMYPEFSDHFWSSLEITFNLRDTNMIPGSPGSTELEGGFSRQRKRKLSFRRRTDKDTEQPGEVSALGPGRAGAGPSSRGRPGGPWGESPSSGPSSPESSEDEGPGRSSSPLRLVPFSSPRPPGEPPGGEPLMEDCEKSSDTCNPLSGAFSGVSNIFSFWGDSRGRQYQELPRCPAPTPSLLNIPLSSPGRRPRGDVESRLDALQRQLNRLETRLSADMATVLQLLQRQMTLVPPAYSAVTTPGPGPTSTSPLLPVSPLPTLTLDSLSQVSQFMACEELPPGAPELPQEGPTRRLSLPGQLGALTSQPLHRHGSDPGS
Chain of Histamine H3 receptor (Q9Y5N1 whole entry): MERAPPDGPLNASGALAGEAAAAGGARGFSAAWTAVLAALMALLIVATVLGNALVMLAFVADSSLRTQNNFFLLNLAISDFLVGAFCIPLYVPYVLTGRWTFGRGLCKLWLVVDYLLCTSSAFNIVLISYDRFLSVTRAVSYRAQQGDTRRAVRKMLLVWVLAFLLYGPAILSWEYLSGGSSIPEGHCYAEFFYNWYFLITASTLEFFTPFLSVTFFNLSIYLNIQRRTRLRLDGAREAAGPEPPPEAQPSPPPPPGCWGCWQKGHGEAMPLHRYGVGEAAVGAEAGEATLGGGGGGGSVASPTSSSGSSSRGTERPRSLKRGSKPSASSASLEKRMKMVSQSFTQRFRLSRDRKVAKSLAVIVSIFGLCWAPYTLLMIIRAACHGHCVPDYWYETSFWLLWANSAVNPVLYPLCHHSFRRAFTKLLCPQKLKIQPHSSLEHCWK
Chain of Sodium-dependent serotonin transporter (P31645 whole entry): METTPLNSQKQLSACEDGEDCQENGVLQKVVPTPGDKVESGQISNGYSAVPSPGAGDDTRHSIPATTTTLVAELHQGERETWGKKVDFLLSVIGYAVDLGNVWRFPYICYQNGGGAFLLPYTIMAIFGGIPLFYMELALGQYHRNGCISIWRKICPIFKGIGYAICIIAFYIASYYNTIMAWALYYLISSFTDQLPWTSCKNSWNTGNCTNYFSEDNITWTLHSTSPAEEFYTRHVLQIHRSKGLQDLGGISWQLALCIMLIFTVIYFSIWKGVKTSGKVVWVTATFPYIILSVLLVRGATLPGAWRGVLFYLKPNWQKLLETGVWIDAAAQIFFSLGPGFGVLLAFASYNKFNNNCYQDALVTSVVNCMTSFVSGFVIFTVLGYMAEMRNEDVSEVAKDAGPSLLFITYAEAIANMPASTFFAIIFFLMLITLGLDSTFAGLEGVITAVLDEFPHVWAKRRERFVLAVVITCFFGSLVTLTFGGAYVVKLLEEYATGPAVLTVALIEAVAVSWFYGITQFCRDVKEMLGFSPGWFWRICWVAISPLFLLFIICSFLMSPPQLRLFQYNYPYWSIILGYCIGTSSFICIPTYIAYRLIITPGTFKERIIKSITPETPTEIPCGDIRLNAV
Chain of Mu-type opioid receptor (P35372 whole entry): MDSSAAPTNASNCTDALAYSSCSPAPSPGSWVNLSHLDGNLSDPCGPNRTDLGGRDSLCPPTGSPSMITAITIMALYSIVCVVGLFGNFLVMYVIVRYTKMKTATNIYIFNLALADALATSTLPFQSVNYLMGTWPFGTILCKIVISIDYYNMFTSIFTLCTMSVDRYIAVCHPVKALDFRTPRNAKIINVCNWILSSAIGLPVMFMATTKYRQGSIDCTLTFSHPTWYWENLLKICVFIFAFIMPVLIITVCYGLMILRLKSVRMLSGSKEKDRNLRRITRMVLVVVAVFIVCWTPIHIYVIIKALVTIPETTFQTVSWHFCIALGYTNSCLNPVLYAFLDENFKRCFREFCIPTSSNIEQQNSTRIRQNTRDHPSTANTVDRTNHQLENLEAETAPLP

Row | SMILES | AC50 (Adenosine receptor A3) | AC50 [1] | AC50 [2] | AC50 [3] | AC50 (D(1A) dopamine receptor) | AC50 (D(3) dopamine receptor) | AC50 (Prothrombin) | AC50 (Histamine H3 receptor) | AC50 [4] | AC50 [5] | AC50 (Mu-type opioid receptor) | AC50 [6] | AC50 [7] | AC50 [8] | AC50 (Thromboxane A2 receptor)
1 | O=C(O)c1cccc(-c2noc(-c3ccccc3F)n2)c1 | > 30 µM | > 30 µM | > 30 µM | > 30 µM | > 30 µM | > 30 µM | > 30 µM | > 30 µM | > 30 µM | > 30 µM | > 30 µM | > 30 µM | > 30 µM | > 30 µM | > 30 µM
2 | Nc1ccc(C(=O)O)cc1 [AMINOBENZOIC ACID] | > 30 µM | > 30 µM | > 30 µM | > 30 µM | > 30 µM | > 30 µM | > 30 µM | > 30 µM | > 30 µM | > 30 µM | > 30 µM | 4.69 µM | 2.18 µM | > 30 µM | > 30 µM
3 | CCCC1C(=O)N2C(N(C)C)=Nc3ccc(C)cc3N2C1=O (stereo not given) [APAZONE] | 3.84 µM | > 30 µM | > 30 µM | > 30 µM | > 30 µM | > 30 µM | > 30 µM | > 30 µM | > 30 µM | > 30 µM | > 30 µM | 8.41 µM | 6.16 µM | > 30 µM | > 30 µM
4 | O=C1CN=C(c2ccccc2)c2c(sc3c2CCCC3)N1 [BENTAZEPAM] | 14.3 µM | 12.4 µM | 23.9 µM | > 30 µM | > 30 µM | > 30 µM | > 30 µM | > 30 µM | > 30 µM | > 30 µM | > 30 µM | > 30 µM | > 1 µM | > 30 µM | > 30 µM
5 | O=C(O)CCCN1CCC(O[C@@H](c2ccc(Cl)cc2)c2ccccn2)CC1 [BEPOTASTINE] | > 30 µM | > 30 µM | > 30 µM | > 30 µM | > 30 µM | > 30 µM | > 30 µM | > 30 µM | > 30 µM | > 30 µM | > 30 µM | > 30 µM | > 30 µM | > 30 µM | > 30 µM
6 | CCCCN(CCCC)CCCOC(=O)c1ccc(N)cc1 [BUTACAINE] | > 30 µM | > 30 µM | > 30 µM | 16.3 µM | > 30 µM | 5.52 µM | > 30 µM | > 30 µM | > 30 µM | 5.4 µM | > 30 µM | > 30 µM | > 30 µM | > 30 µM | > 30 µM
7 | CCCC[N+]1(C)[C@@H]2C[C@@H](OC(=O)[C@H](CO)c3ccccc3)C[C@H]1[C@@H]1O[C@@H]12 (stereo not given in full) [BUTYLSCOPOLAMINE] | > 30 µM | > 30 µM | > 30 µM |  | > 30 µM | > 30 µM | > 30 µM | > 30 µM | > 30 µM | 2.8 µM | > 30 µM | > 30 µM | > 30 µM | > 30 µM | > 30 µM
8 | O=C(c1ccc(F)c(F)c1Nc1ccc(I)cc1F)N1CC(O)([C@@H]2CCCCN2)C1 [COBIMETINIB] | > 30 µM | 13.6 µM | > 30 µM | 13.8 µM | 24.1 µM | 24.1 µM | > 30 µM | > 30 µM | > 30 µM |  | 0.271 µM | > 30 µM | > 30 µM | 7.82 µM | > 3 µM
9 | Nc1nc(-n2cc(C(=O)O)c(=O)c3cc(F)c(N4CC(O)C4)c(Cl)c32)c(F)cc1F [DELAFLOXACIN] | > 3 µM | > 30 µM | > 30 µM | > 30 µM | > 30 µM | > 30 µM | > 30 µM | > 30 µM | > 30 µM | > 30 µM | > 30 µM | > 30 µM | > 30 µM | > 30 µM | > 30 µM
10 | COc1ccc(-c2cc(=O)c3c(O)cc(O[C@@H]4O[C@H](CO[C@@H]5O[C@@H](C)[C@H](O)[C@@H](O)[C@H]5O)[C@@H](O)[C@H](O)[C@H]4O)cc3o2)cc1O [DIOSMIN] | > 30 µM | > 30 µM | > 30 µM | > 30 µM | > 30 µM | > 30 µM | > 30 µM | > 30 µM | > 30 µM | > 30 µM | > 30 µM | > 30 µM | > 30 µM | > 30 µM | > 30 µM
11 | CCC1(c2cccc(O)c2)CCCCN(C)C1 (stereo not given) [MEPTAZINOL] | > 30 µM | > 30 µM | > 30 µM | 20.9 µM | > 30 µM | > 30 µM | > 30 µM | > 30 µM | > 30 µM | > 30 µM |  | > 30 µM | > 3 µM | 13.5 µM | > 30 µM
12 | O=[N+]([O-])c1cncn1CCN1CCOCC1 [NIMORAZOLE] | > 30 µM | > 30 µM | > 30 µM | > 30 µM | > 30 µM | > 30 µM | > 30 µM | > 30 µM | > 30 µM |  | > 30 µM | > 30 µM | > 30 µM | > 30 µM | > 30 µM
13 | COc1cc2c(cc1OC)[C@H]1C[C@@H](OC(=O)[C@@H](N)C(C)C)[C@H](CC(C)C)CN1CC2 [VALBENAZINE] | > 30 µM | > 30 µM | > 30 µM | > 30 µM | > 30 µM | > 30 µM | > 30 µM | > 30 µM | > 30 µM |  | 21.6 µM | 5.44 µM | 24.1 µM | > 30 µM | 13.9 µM
